This passage reports Activity results from ChEMBL document CHEMBL5678818, “Discovery of potent SOS1 inhibitors that block RAS activation via disruption of the RAS-SOS1 interaction” (Proc Natl Acad Sci U S A, 2019).

Structures are written as SMILES.

The target in experiment [1] is T1, Mitogen-activated protein kinase kinase kinase 5 (Homo sapiens) (UniProt Q99683).
T1 sequence (whole entry): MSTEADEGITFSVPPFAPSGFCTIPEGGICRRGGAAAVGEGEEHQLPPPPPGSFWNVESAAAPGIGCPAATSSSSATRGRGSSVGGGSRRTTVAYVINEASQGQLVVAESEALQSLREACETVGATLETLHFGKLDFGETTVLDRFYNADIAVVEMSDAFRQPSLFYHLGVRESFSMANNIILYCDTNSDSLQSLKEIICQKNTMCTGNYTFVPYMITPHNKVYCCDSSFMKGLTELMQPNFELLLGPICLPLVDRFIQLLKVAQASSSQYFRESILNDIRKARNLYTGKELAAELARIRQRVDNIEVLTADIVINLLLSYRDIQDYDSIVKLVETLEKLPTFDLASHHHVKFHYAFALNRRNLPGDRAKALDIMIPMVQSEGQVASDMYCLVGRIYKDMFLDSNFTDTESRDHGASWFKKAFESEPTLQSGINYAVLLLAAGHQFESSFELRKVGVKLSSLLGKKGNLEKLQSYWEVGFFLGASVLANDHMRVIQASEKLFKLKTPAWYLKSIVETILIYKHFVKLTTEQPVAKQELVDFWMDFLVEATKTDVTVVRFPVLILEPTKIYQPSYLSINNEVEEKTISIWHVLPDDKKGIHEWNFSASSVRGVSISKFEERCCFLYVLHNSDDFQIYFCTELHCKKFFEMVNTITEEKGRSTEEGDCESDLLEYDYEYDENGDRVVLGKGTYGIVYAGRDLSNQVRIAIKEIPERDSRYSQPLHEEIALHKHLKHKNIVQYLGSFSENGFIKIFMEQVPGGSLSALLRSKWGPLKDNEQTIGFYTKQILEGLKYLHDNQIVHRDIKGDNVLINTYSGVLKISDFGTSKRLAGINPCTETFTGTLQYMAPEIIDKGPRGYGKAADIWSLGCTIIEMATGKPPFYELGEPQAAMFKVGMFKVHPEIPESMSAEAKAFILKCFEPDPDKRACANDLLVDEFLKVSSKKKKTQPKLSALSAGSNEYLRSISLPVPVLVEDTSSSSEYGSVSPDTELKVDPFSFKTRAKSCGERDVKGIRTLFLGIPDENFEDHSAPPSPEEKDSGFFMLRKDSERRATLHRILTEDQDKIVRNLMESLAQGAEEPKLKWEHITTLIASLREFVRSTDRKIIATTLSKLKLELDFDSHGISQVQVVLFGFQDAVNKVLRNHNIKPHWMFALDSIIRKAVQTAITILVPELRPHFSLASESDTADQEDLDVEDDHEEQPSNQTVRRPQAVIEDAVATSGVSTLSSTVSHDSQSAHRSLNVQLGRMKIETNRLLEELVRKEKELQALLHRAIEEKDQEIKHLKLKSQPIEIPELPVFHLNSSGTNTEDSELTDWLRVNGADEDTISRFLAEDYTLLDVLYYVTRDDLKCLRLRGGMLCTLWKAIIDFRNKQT
As to the kind of experiment: Inhibition of ASK1 (unknown origin) assessed as residual activity at 100 nM by KINOMEscan analysis relative to control.

Experiment [2] deals with Casein kinase I isoform gamma-3 (Homo sapiens) (UniProt Q9Y6M4). As to the kind of experiment: Inhibition of CSNK1G3 (unknown origin) assessed as residual activity at 100 nM by KINOMEscan analysis relative to control.
For experiment [3], the target named is Focal adhesion kinase 1 (Homo sapiens) (UniProt Q05397). As to the kind of experiment: Inhibition of FAK (unknown origin) assessed as residual activity at 100 nM by KINOMEscan analysis relative to control.
The target in experiment [4] is Serine/threonine-protein kinase Chk2 (Homo sapiens) (UniProt O96017). In words: Inhibition of CHEK2 (unknown origin) assessed as residual activity at 100 nM by KINOMEscan analysis relative to control.
In experiment [5] the target is Calcium/calmodulin-dependent protein kinase kinase 2 (Homo sapiens) (UniProt Q96RR4). In words: Inhibition of CAMKK2 (unknown origin) assessed as residual activity at 100 nM by KINOMEscan analysis relative to control.
Experiment [6] has as its system Phosphatidylinositol 4,5-bisphosphate 3-kinase catalytic subunit alpha isoform (Homo sapiens), P42336 [I800L]. In words: Inhibition of PIK3CA I800L mutant (unknown origin) assessed as residual activity at 100 nM by KINOMEscan analysis relative to control.
Experiment [7] concerns the target T2, Protein kinase C iota type (Homo sapiens) (UniProt P41743).
T2 sequence (whole entry): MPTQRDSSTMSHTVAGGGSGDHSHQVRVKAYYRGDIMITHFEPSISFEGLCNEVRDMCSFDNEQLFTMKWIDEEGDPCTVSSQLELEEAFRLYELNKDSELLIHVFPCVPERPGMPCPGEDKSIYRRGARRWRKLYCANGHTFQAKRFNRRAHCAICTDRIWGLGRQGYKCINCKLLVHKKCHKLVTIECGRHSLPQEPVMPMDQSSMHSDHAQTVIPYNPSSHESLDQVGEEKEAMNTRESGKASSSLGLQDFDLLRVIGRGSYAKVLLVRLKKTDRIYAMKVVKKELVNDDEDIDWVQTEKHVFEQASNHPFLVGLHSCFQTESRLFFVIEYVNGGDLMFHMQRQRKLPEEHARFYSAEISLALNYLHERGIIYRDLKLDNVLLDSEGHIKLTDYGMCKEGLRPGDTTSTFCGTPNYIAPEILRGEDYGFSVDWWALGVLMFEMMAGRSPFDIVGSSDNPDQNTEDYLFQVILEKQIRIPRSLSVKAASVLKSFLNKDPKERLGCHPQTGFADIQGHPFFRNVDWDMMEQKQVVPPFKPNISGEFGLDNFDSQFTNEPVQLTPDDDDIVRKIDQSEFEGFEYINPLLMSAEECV
As to the kind of experiment: Inhibition of PRKCI (unknown origin) assessed as residual activity at 100 nM by KINOMEscan analysis relative to control.

Experiment [8] addresses Serine/threonine-protein kinase PLK1 (Homo sapiens) (UniProt P53350). As to the kind of experiment: Inhibition of PLK1 (unknown origin) assessed as residual activity at 100 nM by KINOMEscan analysis relative to control.
For experiment [9], the system named is Tyrosine-protein kinase ABL1 (Homo sapiens), P00519 [F317I]. In words: Inhibition of nonphosphorylated ABL1 F317I mutant (unknown origin) assessed as residual activity at 100 nM by KINOMEscan analysis relative to control.
Experiment [10] has as its target Testis-specific serine/threonine-protein kinase 3 (Homo sapiens) (UniProt Q96PN8). In words: Inhibition of TSSK3 (unknown origin) assessed as residual activity at 1000 nM by KINOMEscan analysis relative to control.
The target of experiment [11] is Phosphatidylinositol 3-kinase catalytic subunit type 3 (Homo sapiens) (UniProt Q8NEB9). As to the kind of experiment: Inhibition of VPS34 (unknown origin) assessed as residual activity at 1000 nM by KINOMEscan analysis relative to control.

Sequence of Phosphatidylinositol 4,5-bisphosphate 3-kinase catalytic subunit alpha isoform (Homo sapiens), P42336 [I800L] (P42336 whole entry I800L, canonical isoform): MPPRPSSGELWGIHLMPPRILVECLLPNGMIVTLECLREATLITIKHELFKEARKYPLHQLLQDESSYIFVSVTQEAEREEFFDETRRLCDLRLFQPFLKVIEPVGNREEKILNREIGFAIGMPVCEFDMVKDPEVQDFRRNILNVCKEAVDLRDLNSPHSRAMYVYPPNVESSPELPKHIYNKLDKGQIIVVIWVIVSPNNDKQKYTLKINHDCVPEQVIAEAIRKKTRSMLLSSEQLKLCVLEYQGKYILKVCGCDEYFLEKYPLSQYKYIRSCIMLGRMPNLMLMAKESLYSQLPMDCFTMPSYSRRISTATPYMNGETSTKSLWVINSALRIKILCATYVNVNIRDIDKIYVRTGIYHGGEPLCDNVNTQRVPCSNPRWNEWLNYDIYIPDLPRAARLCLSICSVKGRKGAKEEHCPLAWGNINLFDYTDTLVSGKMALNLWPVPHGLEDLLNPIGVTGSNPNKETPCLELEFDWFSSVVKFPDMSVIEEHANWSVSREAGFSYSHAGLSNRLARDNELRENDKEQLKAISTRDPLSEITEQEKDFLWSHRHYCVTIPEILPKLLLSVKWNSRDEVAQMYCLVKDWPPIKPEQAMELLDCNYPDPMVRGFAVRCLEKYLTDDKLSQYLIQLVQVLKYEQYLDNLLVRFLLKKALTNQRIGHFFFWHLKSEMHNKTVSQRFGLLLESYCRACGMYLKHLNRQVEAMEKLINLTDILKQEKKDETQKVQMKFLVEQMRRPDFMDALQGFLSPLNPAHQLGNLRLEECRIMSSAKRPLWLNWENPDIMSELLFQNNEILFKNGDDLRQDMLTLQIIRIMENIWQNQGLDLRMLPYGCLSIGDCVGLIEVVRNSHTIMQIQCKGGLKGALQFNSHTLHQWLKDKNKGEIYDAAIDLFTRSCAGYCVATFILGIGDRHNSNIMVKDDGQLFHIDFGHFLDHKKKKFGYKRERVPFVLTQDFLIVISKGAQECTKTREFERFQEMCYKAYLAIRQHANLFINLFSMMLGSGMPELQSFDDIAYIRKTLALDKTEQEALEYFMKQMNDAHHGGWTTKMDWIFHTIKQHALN
Sequence of Focal adhesion kinase 1 (Homo sapiens) (Q05397 2-1052 limits assumed): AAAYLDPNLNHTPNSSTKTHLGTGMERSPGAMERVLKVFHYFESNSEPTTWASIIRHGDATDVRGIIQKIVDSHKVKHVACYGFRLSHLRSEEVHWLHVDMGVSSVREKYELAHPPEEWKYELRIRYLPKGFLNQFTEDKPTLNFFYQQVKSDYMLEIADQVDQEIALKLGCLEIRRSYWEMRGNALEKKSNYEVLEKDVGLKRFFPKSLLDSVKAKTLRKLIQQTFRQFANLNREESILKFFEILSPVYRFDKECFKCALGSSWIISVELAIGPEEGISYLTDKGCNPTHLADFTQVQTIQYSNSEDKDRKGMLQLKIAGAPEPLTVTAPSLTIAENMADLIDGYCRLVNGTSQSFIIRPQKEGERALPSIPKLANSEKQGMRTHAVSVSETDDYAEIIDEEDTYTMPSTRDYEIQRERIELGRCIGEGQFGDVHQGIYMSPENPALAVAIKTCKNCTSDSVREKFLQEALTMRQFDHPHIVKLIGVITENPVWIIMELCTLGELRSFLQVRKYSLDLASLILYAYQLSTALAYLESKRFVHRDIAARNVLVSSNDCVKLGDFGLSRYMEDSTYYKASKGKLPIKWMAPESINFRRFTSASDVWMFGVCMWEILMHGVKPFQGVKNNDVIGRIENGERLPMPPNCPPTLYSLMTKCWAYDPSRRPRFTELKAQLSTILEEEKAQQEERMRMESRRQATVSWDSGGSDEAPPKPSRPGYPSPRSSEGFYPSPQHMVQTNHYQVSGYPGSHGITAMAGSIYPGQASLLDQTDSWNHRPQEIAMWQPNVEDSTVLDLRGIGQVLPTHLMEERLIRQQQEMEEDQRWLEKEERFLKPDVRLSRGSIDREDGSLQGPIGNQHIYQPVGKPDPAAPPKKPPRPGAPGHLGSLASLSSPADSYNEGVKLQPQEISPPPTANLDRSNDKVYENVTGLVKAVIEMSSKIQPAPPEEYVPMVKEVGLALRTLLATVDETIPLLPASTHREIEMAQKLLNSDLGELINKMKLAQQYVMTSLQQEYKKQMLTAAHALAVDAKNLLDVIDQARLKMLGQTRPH
Sequence of Casein kinase I isoform gamma-3 (Homo sapiens) (Q9Y6M4 whole entry, looked up, canonical isoform): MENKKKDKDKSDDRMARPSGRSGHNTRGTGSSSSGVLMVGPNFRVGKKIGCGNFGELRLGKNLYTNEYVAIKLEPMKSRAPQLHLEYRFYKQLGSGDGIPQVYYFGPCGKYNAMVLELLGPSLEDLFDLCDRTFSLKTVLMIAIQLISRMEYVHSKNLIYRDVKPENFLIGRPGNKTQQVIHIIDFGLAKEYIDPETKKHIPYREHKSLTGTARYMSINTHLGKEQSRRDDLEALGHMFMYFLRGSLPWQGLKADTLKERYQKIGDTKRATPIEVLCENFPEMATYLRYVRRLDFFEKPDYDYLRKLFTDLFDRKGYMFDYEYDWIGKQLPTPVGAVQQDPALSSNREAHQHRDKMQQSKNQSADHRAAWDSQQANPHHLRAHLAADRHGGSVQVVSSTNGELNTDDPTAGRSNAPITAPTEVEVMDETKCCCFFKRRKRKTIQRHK
Sequence of Serine/threonine-protein kinase Chk2 (Homo sapiens) (O96017 whole entry): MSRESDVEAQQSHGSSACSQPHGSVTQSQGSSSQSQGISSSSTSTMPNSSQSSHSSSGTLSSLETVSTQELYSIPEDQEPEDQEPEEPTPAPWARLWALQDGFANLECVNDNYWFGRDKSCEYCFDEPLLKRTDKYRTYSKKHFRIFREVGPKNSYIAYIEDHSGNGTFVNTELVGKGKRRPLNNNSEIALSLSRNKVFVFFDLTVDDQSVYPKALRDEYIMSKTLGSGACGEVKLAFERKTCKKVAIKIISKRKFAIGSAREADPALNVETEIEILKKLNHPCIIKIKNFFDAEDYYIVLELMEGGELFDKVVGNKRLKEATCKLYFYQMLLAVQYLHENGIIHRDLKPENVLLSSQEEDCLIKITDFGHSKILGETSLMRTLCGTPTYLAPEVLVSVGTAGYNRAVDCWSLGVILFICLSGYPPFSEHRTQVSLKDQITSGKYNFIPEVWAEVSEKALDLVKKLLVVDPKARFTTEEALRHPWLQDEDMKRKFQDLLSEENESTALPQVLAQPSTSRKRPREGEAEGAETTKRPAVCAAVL
Sequence of Testis-specific serine/threonine-protein kinase 3 (Homo sapiens) (Q96PN8 whole entry): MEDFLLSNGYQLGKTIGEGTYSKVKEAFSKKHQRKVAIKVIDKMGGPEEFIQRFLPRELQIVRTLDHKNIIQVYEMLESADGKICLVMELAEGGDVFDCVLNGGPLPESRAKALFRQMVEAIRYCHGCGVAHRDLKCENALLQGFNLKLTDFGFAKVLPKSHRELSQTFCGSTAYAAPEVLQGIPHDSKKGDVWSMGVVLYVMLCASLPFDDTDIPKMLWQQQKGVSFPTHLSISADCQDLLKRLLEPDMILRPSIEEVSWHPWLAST
Sequence of Calcium/calmodulin-dependent protein kinase kinase 2 (Homo sapiens) (Q96RR4 2-588 limits assumed): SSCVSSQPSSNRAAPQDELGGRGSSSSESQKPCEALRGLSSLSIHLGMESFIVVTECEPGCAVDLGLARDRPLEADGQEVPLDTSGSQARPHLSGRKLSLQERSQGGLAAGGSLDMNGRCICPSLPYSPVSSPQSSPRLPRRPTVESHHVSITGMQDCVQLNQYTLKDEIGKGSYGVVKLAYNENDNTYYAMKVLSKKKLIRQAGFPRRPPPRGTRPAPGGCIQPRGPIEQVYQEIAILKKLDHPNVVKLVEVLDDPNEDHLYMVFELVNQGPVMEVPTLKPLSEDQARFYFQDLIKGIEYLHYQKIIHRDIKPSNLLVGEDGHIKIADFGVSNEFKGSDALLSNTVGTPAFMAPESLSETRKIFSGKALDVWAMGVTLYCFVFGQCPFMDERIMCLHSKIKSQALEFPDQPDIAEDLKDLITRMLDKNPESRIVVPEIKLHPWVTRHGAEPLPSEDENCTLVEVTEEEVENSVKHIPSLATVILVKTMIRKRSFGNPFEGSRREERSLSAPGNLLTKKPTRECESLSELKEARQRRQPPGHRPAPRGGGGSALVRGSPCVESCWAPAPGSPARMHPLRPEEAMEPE
Sequence of Serine/threonine-protein kinase PLK1 (Homo sapiens) (P53350 whole entry): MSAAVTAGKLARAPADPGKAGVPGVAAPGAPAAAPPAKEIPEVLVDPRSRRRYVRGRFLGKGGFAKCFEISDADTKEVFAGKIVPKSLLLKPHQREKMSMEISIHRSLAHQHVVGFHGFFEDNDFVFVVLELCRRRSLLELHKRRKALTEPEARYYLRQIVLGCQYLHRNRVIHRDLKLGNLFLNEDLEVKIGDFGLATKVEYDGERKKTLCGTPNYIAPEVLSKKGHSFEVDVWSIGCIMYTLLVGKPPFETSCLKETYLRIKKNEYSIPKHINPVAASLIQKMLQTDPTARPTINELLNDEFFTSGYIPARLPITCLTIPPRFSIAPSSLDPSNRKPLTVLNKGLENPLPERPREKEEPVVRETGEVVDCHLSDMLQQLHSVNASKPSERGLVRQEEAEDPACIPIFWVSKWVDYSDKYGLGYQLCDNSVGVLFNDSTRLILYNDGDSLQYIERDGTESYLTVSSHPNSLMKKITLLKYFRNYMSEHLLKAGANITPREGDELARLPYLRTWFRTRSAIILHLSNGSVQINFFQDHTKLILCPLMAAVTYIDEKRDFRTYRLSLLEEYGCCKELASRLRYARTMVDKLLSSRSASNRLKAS

Turning to `COc1cc2ncnc(N[C@H](C)c3cccc4ccccc34)c2cc1OC`, the Activity in experiment [1] stood at 70%; in [2], 87%; in experiment [3] it was 100%; in experiment [4], 100%; in [5], 60%; in experiment [6] it was 98%. Further, the Activity is 84% in experiment [7], 85% in experiment [8] and 85% in [9].
On to `COc1cc2nc(C)nc(N[C@H](C)c3cccc(-c4cn[nH]c4)c3)c2cc1OC`, for which the Activity was 77% in experiment [10] and 100% in experiment [11].
